Measurements from US20200095296A1, “USE OF PEPTIDES AS BIOMARKERS IN THE DIAGNOSIS, CONFIRMATION AND TREATMENT OF A NEUROLOGICAL DISORDER AND TCR AND/OR HLA IMMUNOPROFILING IN NEURODEGENERATIVE DISEASE” (THE TRUSTEES OF COLUMBIA UNIVERSITY IN THE CITY OF NEW YORK, priority 2017, published 2020).
Substitutions are numbered along the chain they refer to. Read-outs that look alike come from different tables or passages of the source.

Assays:
DPB1*04:01 = biological target: T1, DPB1*04:01 (Homo sapiens, UniProt P04440); test: competition binding assay, purified HLA DPB1*04:01
T1 sequence (P04440 30-258): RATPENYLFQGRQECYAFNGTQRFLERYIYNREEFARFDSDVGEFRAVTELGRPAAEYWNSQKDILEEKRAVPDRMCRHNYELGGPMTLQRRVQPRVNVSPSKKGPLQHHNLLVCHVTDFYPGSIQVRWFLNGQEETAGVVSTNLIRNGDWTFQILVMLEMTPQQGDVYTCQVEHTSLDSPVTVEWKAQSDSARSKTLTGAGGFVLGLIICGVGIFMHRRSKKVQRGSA
T1 sequence (P20036 29-260 partner): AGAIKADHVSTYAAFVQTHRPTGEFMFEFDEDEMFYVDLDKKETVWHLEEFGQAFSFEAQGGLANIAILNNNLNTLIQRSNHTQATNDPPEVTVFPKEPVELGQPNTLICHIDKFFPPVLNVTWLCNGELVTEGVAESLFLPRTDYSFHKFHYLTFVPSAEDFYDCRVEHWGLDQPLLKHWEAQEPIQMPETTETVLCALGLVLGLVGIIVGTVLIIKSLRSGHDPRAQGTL

DPB1*02:01 = biological target: T2, DPB1*02:01 (Homo sapiens, UniProt P04440+P20036, A65V/A84D/A85E/K98E); test: competition binding assay, purified HLA DPB1*02:01
T2 sequence (P20036 29-260): T1 sequence (P20036 29-260 partner)
T2 sequence (P04440 30-258 A65V/A84D/A85E/K98E): T1 sequence (P04440 30-258) with A36V, A55D, A56E, K69E

DPB1*04:02 = biological target: T3, DPB1*04:02 (Homo sapiens, UniProt P04440+P20036, A65V/A84D/A85E/L207M); test: competition binding assay, purified HLA DPB1*04:02
T3 sequence (P04440 30-258 A65V/A84D/A85E/L207M): T1 sequence (P04440 30-258) with A36V, A55D, A56E, L178M
T3 sequence (P20036 29-260): T1 sequence (P20036 29-260 partner)

DPB1*03:01 = biological target: T4, DPB1*03:01 (Homo sapiens, UniProt P04440+P20036, A65V/A84D/A85E/E86D/F38Y/G113D/G114E/G40L/I94L/L37V/M105V/M116V/P115A/R125K/T199I); test: competition binding assay, purified HLA DPB1*03:01; conditions: purified HLA, radiolabeled peptide competition; nM; read-out: binding to DPB1*03:01 (IC50)
T4 sequence (P20036 29-260): T1 sequence (P20036 29-260 partner)
T4 sequence (P04440 30-258 L37V/F38Y/G40L/A65V/A84D/A85E/E86D/I94L/M105V/G113D/G114E/P115A/M116V/R125K/T199I): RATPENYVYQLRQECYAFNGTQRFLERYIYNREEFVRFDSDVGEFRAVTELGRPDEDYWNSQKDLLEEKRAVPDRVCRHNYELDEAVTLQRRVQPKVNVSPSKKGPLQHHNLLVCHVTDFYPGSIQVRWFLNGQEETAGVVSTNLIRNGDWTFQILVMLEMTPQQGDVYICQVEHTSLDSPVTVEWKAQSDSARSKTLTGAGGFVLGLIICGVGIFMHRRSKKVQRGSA

DPB1*05:01 = biological target: T5, DPB1*05:01 (Homo sapiens, UniProt P04440+P20036, A65V/A84E/F191V/F64L/G113D/G114E/K142R/L158P/M116V/M62Q/P115A/Q81R/R125K/T114A/T199I/T259P/V234M); test: competition binding assay, purified HLA DPB1*05:01
T5 sequence (P20036 29-260 M62Q/Q81R/T114A/K142R/L158P/F191V/T259P): T1 sequence (P20036 29-260 partner) with M34Q, Q53R, T86A, K114R, L130P, F163V, T231P
T5 sequence (P04440 30-258 F64L/A65V/A84E/G113D/G114E/P115A/M116V/R125K/T199I/V234M): T1 sequence (P04440 30-258) with F35L, A36V, A55E, G84D, G85E, P86A, M87V, R96K, T170I, V205M

DRB4*01:01 = DRB4*01:01 (Homo sapiens, UniProt P01903+P13762, G164S); test: competition binding assay, purified HLA DRB4*01:01; conditions: purified HLA, radiolabeled peptide competition; nM; read-out: binding to DRB4*01:01 (IC50)
DRB5*01:01 = DRB5*01:01 (Homo sapiens, UniProt P01903+Q30154); test: competition binding assay, purified HLA DRB5*01:01; conditions: purified HLA, radiolabeled peptide competition; nM; read-out: binding to DRB5*01:01 (IC50)
PBMC = test: IFNγ and IL-5 dual ELISPOT after 14 days culture of PBMC with α-syn peptide pools; type: cell-based, human; conditions: IFNγ and IL-5 ELISPOT
Procedure: To determine whether α-syn derived peptides were recognized by T cells, responses were assayed to pools that each contained ˜twenty 9-10aa peptides predicted to bind common HLA class I types 15, and 15aa peptides spanning the protein that could elicit HLA class II responses. PBMCs from PD and HC were stimulated for 14 days, and IFNγ and IL-5 responses were measured by dual color ELISPOT, enabling quantification of responsive cells. Positive pools were deconvoluted to identify the peptides eliciting cytokine responses. IFNγ was used as a representative cytokine to detect CD8+/HLA class I and CD4+ Th1/Class II T cells, and IL-5 as a representative cytokine secreted by CD4+ Th2/Class II T cells. […] No cells producing both IL-5 and IFNγ were detected. […]
After 14 days of culture with individual peptide pools (5 μg/ml), the response to pools and individual peptides (5 μg/ml) was measured by IFNγ and IL-5 dual ELISPOT 37. […]
To determine whether α-syn-derived peptides were recognized by T cells, responses to pools that each contained approximately twenty peptides of 9-10 amino acids (a.a.) predicted to bind common HLA class I types, (Vita, R. et al. The immune epitope database (IEDB) 3.0. Nucleic Acids Res. 43, D405-D412 (2015)) and peptides of 15 amino acids spanning the protein that could elicit HLA class II responses were assayed. […] No cells producing both IL-5 and IFNγ were detected. […]

HLA A*11:01 = HLA A*11:01 (Homo sapiens, UniProt P04439, A114D/D185E/E176A/F33Y/L180Q/S129P/T187R); test: competition binding assay, purified HLA A*11:01 molecules; conditions: in vitro
[1] = purified HLA, radiolabeled peptide competition, nM, read-out: binding to DPB1*04:01 (IC50)
[2] = purified HLA, radiolabeled peptide competition, nM, read-out: binding to DPB1*02:01 (IC50)
[3] = purified HLA, radiolabeled peptide competition, nM, read-out: binding to DPB1*04:02 (IC50)
[4] = purified HLA, radiolabeled peptide competition, nM, read-out: binding to DPB1*05:01 (IC50)

Compound | IC50 (DPB1*04:01; [1]) | IC50 (DPB1*02:01; [2]) | IC50 (DPB1*04:02; [3]) | IC50 (DPB1*03:01) | IC50 (DPB1*05:01; [4]) | other results
CC(C)C[C@H](NC(=O)[C@@H](NC(=O)CNC(=O)[C@H](CCC(=O)O)NC(=O)[C@H](CCCCN)NC(=O)[C@@H](NC(=O)[C@@H](N)CCCCN)[C@@H](C)O)C(C)C)C(=O)N[C@@H](Cc1ccc(OP(=O)(O)O)cc1)C(=O)N[C@H](C(=O)NCC(=O)N[C@@H](CO)C(=O)N[C@@H](CCCCN)C(=O)N[C@H](C(=O)N[C@@H](CCCCN)C(=O)N[C@@H](CCC(=O)O)C(=O)O)[C@@H](C)O)C(C)C | – | – | – | – | – | IC50 (DPB1*04:01): 937 nM; IC50 (DPB1*02:01): 620 nM; IC50 (DPB1*04:02): 1600 nM; IC50 (DPB1*05:01): 777 nM
GKTKEGVLYVGSKTK [α-syn 15 mer aa31-45, Y39 region] | – | – | – | – | – | cytokine response elicited (PBMC): apparent Class II restricted IL-5 and IFNγ response; cytokine response elicited (PBMC; listed as GKEGVLYVGSKTK): apparent class II restricted IL-5 and IFNy response
GVLYVGSKTK [α-syn 10 mer aa36-45] | – | – | – | – | – | binding to purified HLA A*11:01 molecules (IC50) (HLA A*11:01): bound poorly
VLYVGSKTKK [10 mer aa37-46] | – | – | – | – | – | binding to purified HLA A*11:01 molecules (IC50) (HLA A*11:01): bound poorly

The next lines start with results.

IC50 (DPB1*04:01; [1]) | IC50 (DPB1*02:01; [2]) | IC50 (DPB1*04:02; [3]) | IC50 (DPB1*03:01) | IC50 (DPB1*05:01; [4]) | Compound | other results
> 10000 nM | > 10000 nM | > 10000 nM | > 10000 nM | > 10000 nM | CSCC[C@H](NC(=O)[C@@H](N)CCC(=O)O)C(=O)N1CCC[C@H]1C(=O)N[C@@H](CO)C(=O)N[C@@H](CCC(=O)O)C(=O)N[C@@H](CCC(=O)O)C(=O)NCC(=O)N[C@@H](Cc1ccc(O)cc1)C(=O)N[C@@H](CCC(N)=O)C(=O)N[C@@H](CC(=O)O)C(=O)N[C@@H](Cc1ccc(O)cc1)C(=O)N[C@@H](CCC(=O)O)C(=O)N1CCC[C@H]1C(=O)N[C@@H](CCC(=O)O)C(=O)N[C@@H](C)C(=O)O | –
> 10000 nM | > 10000 nM | > 10000 nM | > 10000 nM | > 10000 nM | CSCC[C@H](NC(=O)[C@H](CCC(=O)O)NC(=O)[C@H](Cc1ccc(O)cc1)NC(=O)[C@H](C)NC(=O)[C@H](CCC(=O)O)NC(=O)[C@H](CC(N)=O)NC(=O)[C@H](CC(=O)O)NC(=O)[C@@H]1CCCN1C(=O)[C@H](CC(=O)O)NC(=O)[C@@H](NC(=O)[C@@H]1CCCN1C(=O)[C@@H](N)CCSC)C(C)C)C(=O)N1CCC[C@H]1C(=O)N[C@@H](CO)C(=O)N[C@@H](CCC(=O)O)C(=O)O | –
> 10000 nM | > 10000 nM | > 10000 nM | > 10000 nM | > 10000 nM | CSCC[C@H](NC(=O)[C@H](CCC(=O)O)NC(=O)[C@H](Cc1ccc(O)cc1)NC(=O)[C@H](C)NC(=O)[C@H](CCC(=O)O)NC(=O)[C@H](CC(N)=O)NC(=O)[C@H](CC(=O)O)NC(=O)[C@@H]1CCCN1C(=O)[C@H](CC(=O)O)NC(=O)[C@@H](NC(=O)[C@@H]1CCCN1C(=O)[C@@H](N)CCSC)C(C)C)C(=O)N1CCC[C@H]1C(=O)N[C@@H](COP(=O)(O)O)C(=O)N[C@@H](CCC(=O)O)C(=O)O | IC50 (DRB4*01:01): > 10000 nM; IC50 (DRB5*01:01): > 10000 nM
